Measured values published in patent US10106627B2, “Process for the preparation of polymeric biosurfactants” (priority 2014, dated 2018).
Converted amounts (≈) assume the structure as drawn. *1 amine or outer side, *2 acyl side, *3 side chain or, on linkers, in order; H or OH if unused. Where a SMILES comes first, the peptide text is derived from it. Bridges are numbered along the chain shown (N, C = ends). [ ]: non-standard residue; d: D form. X1 = CC(C)CCCCCCCCC[C@H](CC(=O)[*:1])O[*:2]

What was measured:
[1] = tested on: Micrococcus luteus MTCC 2470; test: Microtiter broth dilution MIC; assay type: cell-based; details: Micrococcus luteus MTCC 2470, 24 h, 35° C.
Protocol: (§1) The antimicrobial activity of Microsan and M-EPS-Au-NP was determined using the microtiter broth dilution method [Kumar, C. G. and Mamidyala, S. K. (2011) Coll. Surf B: Biointerf. 84, 462-466]. Different bacterial pathogens (10^7 cfu ml^−1 cells) were inoculated in 100 μl of Muller-Hinton broth. Different concentrations of Microsan, M-EPS-Au-NP and Brevisan were added to each strain and incubated for 24 h at 35° C. After incubation, 40 μl of p-iodonitrotetrazolium (INT, Sigma) dye (0.02%, 20 mg INT dissolved in 100 ml of 40% dimethyl formamide was added to each well and incubated for 2 h. The reduction of p-iodonitrotetrazolium was spectroscopically measured at 450 nm using TRIAD multimode reader (Dynex Technologies, Inc., Chantilly, Va.) to determine the minimum inhibitory concentration (MIC) values. Commercially available surfactin (CAS 24730-31-2; Sigma-Aldrich) and laminarin (CAS No 9008-22-4; Sigma-Aldrich) used as positive controls were run in parallel for comparison. The MIC values of Microsan and M-EPS-Au-NP observed against the tested bacterial strains are shown in Table 3.

[2] = tested on: Bacillus subtilis MTCC 121; test: Microtiter broth dilution MIC; assay type: cell-based; details: Bacillus subtilis MTCC 121, 24 h, 35° C.
Protocol: as §1

[3] = tested on: Klebsiella planticola MTCC 530; test: Microtiter broth dilution MIC; assay type: cell-based; details: Klebsiella planticola MTCC 530, 24 h, 35° C.
Protocol: as §1

[4] = tested on: Staphylococcus aureus MLS16 MTCC 2940; test: Microtiter broth dilution MIC; assay type: cell-based; details: Staphylococcus aureus MLS16 MTCC 2940, 24 h, 35° C.
Protocol: as §1

[5] = tested on: Staphylococcus aureus MTCC 96; test: Microtiter broth dilution MIC; assay type: cell-based; details: Staphylococcus aureus MTCC 96, 24 h, 35° C.
Protocol: as §1

[6] = tested on: Escherichia coli MTCC 739; test: Microtiter broth dilution MIC; assay type: cell-based; details: Escherichia coli MTCC 739, 24 h, 35° C.
Protocol: as §1

[7] = tested on: Pseudomonas aeruginosa MTCC 2453; test: Microtiter broth dilution MIC; assay type: cell-based; details: Pseudomonas aeruginosa MTCC 2453, 24 h, 35° C.
Protocol: as §1

[8] = Lipid peroxidation assay (malondialdehyde); assay type: biochemical; details: cell free
Protocol: (§2) The antioxidant activity of Microsan from Microbacterium sp. strain BS-2 and Brevisan from Brevibacillus sp. strain BS-207 in cell free system was measured by its inhibitory activity on the generation of DPPH free radicals, superoxide anions (O^2−), lipid peroxidation and erythrocyte hemolysis. The DPPH free radical scavenging assay was performed using 2,2-diphenyl-1-picrylhydrazyl (DPPH) free radical scavenging method [Ara. N. and Hasan, N. (2009) Res. J. Med. Medical Sci. 4, 107-110]. Different concentrations of Microsan and Brevisan were mixed individually with 150 μl of 160 μM methanolic solution of DPPH and incubated at 35° C. for 30 min in dark. The effective concentration (EC50) was calculated by measuring the absorbance of the samples at 517 nm. The superoxide anion scavenging was measured using phenazine methosulfate-nicotinamide adenine dinucleotide (PMS/NADH) method as previously described [Liu, F., Ooi, V. E. and Chang, S. T. (1997) Life Sci. 60, 763-771]. The lipid peroxidation assay was performed using the previously described method [Zhang, Q., Yu, P., Li, Z., Zhang, H., Xu, Z. and Li, P. (2003) J. Appl. Phycol. 15, 305-310] which is based on measuring the lipid peroxide decomposed product malondialdehyde (MDA). […] Samples were incubated at 37° C. for 30 min and the absorbance was measured at 540 nm. […]

[9] = DPPH free radical scavenging assay (cell free); assay type: biochemical; details: 35° C., 30 min
Protocol: as §2

[10] = Superoxide anion scavenging (PMS/NADH method); assay type: biochemical; details: cell free
Protocol: as §2

[11] = tested on: erythrocytes; test: Erythrocyte hemolysis assay (H2O2); assay type: cell-based; details: Erythrocyte, 0.5 h; human erythrocytes, H2O2, 37° C., 30 min; read-out: EC50 erythrocyte hemolysis inhibition
Protocol: as §2

Laminarin
Minimum inhibitory concentration (MIC) [1]: 4.68 µg/mL
Minimum inhibitory concentration (MIC) [2]: 9.37 µg/mL
Minimum inhibitory concentration (MIC) [3]: 4.68 µg/mL
Minimum inhibitory concentration (MIC) [4]: 37.5 µg/mL
Minimum inhibitory concentration (MIC) [5]: 18.75 µg/mL
Minimum inhibitory concentration (MIC) [6]: 18.75 µg/mL
Minimum inhibitory concentration (MIC) [7]: 4.68 µg/mL

O=C1O[C@H]([C@@H](O)CO)C(O)=C1O [ascorbic acid, reference compound]
EC50 lipid peroxidation inhibition [8]: 130.97 µg/mL (≈ 744 µM)
EC50 DPPH free radical scavenging [9]: 40.28 µg/mL (≈ 229 µM)
EC50 superoxide anions (O^2−) scavenging [10]: 21.1 µg/mL (≈ 120 µM)
EC50 [11]: 120 µg/mL (≈ 680 µM)

CC(C)CCCCCCCCC[C@@H]1CC(=O)N[C@@H](CCC(=O)O)C(=O)N[C@@H](CC(C)C)C(=O)N[C@H](CC(C)C)C(=O)N[C@@H](C(C)C)C(=O)N[C@@H](CC(=O)O)C(=O)N[C@H](CC(C)C)C(=O)N[C@@H](CC(C)C)C(=O)O1 [Surfactin] (EL[dL]VD[dL]L; linker N-C via X1)
MIC ([1]; MTCC2470, read-out: Minimum inhibitory concentration (MIC)): 18.8 µg/mL (≈ 18.1 µM)
MIC ([2]; MTCC121, read-out: Minimum inhibitory concentration (MIC)): 4.68 µg/mL (≈ 4.52 µM)
MIC ([3]; MTCC530, read-out: Minimum inhibitory concentration (MIC)): 9.37 µg/mL (≈ 9.04 µM)
MIC ([4]; MTCC2940, read-out: Minimum inhibitory concentration (MIC)): 18.8 µg/mL (≈ 18.1 µM)
MIC ([5]; MTCC96, read-out: Minimum inhibitory concentration (MIC)): 9.37 µg/mL (≈ 9.04 µM)
MIC ([6]; MTCC739, read-out: Minimum inhibitory concentration (MIC)): 9.37 µg/mL (≈ 9.04 µM)
MIC ([7]; MTCC2453, read-out: Minimum inhibitory concentration (MIC)): 18.8 µg/mL (≈ 18.1 µM)
